This note sets out measurements from ChEMBL document CHEMBL3797079, “Synergistic reduction of HIV-1 infectivity by 5-azacytidine and inhibitors of ribonucleotide reductase” (Bioorg Med Chem, 2016).

Series [1] deals with Human immunodeficiency virus 1. Kind of series: Antiviral activity against VSV-G pseudotyped HIV-1 NL4-3 infected in human U373-MAGI cells assessed as reduction in U5-gag level at 5 to 200 nM measured at 6 to 12 hrs post infection by qPCR method. Type of series: functional, organism-based.
In series [2] the test system is Human immunodeficiency virus 1. The series is described as follows: Antiviral activity against VSV-G pseudotyped HIV-1 NL4-3 infected in human U373-MAGI cells assessed as reduction in U5-gag level at 50 or 100 nM measured at 72 hrs post infection by qPCR method. It is filed as functional, organism-based.
Series [3] concerns Human immunodeficiency virus 1. The series is described as follows: Antiviral activity against VSV-G pseudotyped HIV-1 NL4-3 infected in human U373-MAGI cells assessed as reduction in gag level at 5 to 200 nM measured at 6 to 12 hrs post infection by qPCR method. It is filed as functional, organism-based. For orientation: Quantitative PCR measures a nucleic acid by following its amplification.

Series [4] relates to Human immunodeficiency virus 1. Kind of series: Antiviral activity against VSV-G pseudotyped HIV-1 NL4-3 infected in human U373-MAGI cells assessed as reduction in gag level at 50 or 100 nM measured at 72 hrs post infection by qPCR method. It is filed as functional, organism-based.
Series [5] has as its target Human immunodeficiency virus type 1 reverse transcriptase (Human immunodeficiency virus 1) (UniProt Q72547). Kind of series: Inhibition of HIV-1 reverse transcriptase assessed as inhibition of primer extension using 5' 32P-end-labeled 17-mer DNA/40-mer RNA as primer/template up to 1 mM measured after 5 mins by PAGE analysis.
The test system of series [6] is U373-MAGI. The series is described as follows: Effect on dRGU-TP level in human U373-MAGI cells at 200 nM preincubated for 2 hrs followed by 5-aza-dC addition measured after 4 hrs by LC-MS/MS analysis. It is filed as functional, cell-based.
Series [7] has as its system U373-MAGI. Kind of series: Reduction in dCTP level in human U373-MAGI cells at 50 nM preincubated for 2 hrs followed by 5-aza-dC addition measured after 4 hrs by LC-MS/MS analysis relative to 5-aza-dC. Type of series: functional, cell-based.
Series [8] relates to U373-MAGI. The series is described as follows: Reduction in dCTP level in human U373-MAGI cells at 200 nM preincubated for 2 hrs followed by 5-aza-dC addition measured after 4 hrs by LC-MS/MS analysis relative to 5-aza-dC. Type of series: functional, cell-based.
Series [9] has as its system U373-MAGI. The series is described as follows: Reduction in dCTP level in human U373-MAGI cells at 50 nM after 6 hrs by LC-MS/MS analysis. It is filed as functional, cell-based.
Series [10] concerns U373-MAGI. Kind of series: Reduction in dCTP level in human U373-MAGI cells at 200 nM after 6 hrs by LC-MS/MS analysis. Type of series: functional, cell-based.
Series [11] is described as follows: Reduction in dATP level in human U373-MAGI cells at 50 nM after 6 hrs by LC-MS/MS analysis. It is filed as functional. On the set-up: scale not given: the % may be the effect or the level left.
The test system of series [12] is U373-MAGI. The series is described as follows: Reduction in dATP level in human U373-MAGI cells at 200 nM after 6 hrs by LC-MS/MS analysis. It is filed as functional, cell-based.
Series [13] has as its system U373-MAGI. The series is described as follows: Effect on 5-aza-dCTP level in human U373-MAGI cells at 50 nM preincubated for 2 hrs followed by 5-aza-dC addition measured after 4 hrs by LC-MS/MS analysis. Type of series: functional, cell-based.
Series [14] deals with U373-MAGI. Kind of series: Effect on 5-aza-dCTP level in human U373-MAGI cells at 200 nM preincubated for 2 hrs followed by 5-aza-dC addition measured after 4 hrs by LC-MS/MS analysis. Type of series: functional, cell-based.
For series [15], the system named is U373-MAGI. Kind of series: Reduction in dCTP level in human U373-MAGI cells at 50 nM preincubated for 2 hrs followed by 5-aza-C addition measured after 4 hrs by LC-MS/MS analysis. It is filed as functional, cell-based.
Series [16] deals with U373-MAGI. Kind of series: Reduction in dCTP level in human U373-MAGI cells at 200 nM preincubated for 2 hrs followed by 5-aza-C addition measured after 4 hrs by LC-MS/MS analysis relative to 5-aza-C. Type of series: functional, cell-based.
In series [17] the test system is U373-MAGI. The series is described as follows: Effect on dRGU-TP level in human U373-MAGI cells at 50 nM preincubated for 2 hrs followed by 5-aza-dC addition measured after 4 hrs by LC-MS/MS analysis. It is filed as functional, cell-based.
In series [18] the test system is U373-MAGI. The series is described as follows: Reduction in dRGU-TP level in human U373-MAGI cells at 50 nM preincubated for 2 hrs followed by 5-aza-C addition measured after 4 hrs by LC-MS/MS analysis. Type of series: functional, cell-based.
The subject of series [19] is U373-MAGI. Kind of series: Reduction in dRGU-TP level in human U373-MAGI cells at 200 nM preincubated for 2 hrs followed by 5-aza-C addition measured after 4 hrs by LC-MS/MS analysis. It is filed as functional, cell-based.
Series [20] relates to U373-MAGI. Kind of series: Increase in 5-aza-dCTP/dCTP ratio in human U373-MAGI cells at 50 nM preincubated for 2 hrs followed by 5-aza-dC addition measured after 4 hrs by LC-MS/MS analysis relative to 5-aza-dC. It is filed as functional, cell-based.
In series [21] the test system is U373-MAGI. Kind of series: Increase in 5-aza-dCTP/dCTP ratio in human U373-MAGI cells at 200 nM preincubated for 2 hrs followed by 5-aza-dC addition measured after 4 hrs by LC-MS/MS analysis relative to 5-aza-dC. Type of series: functional, cell-based.
Series [22] deals with U373-MAGI. Kind of series: Increase in 5-aza-dCTP/dCTP ratio in human U373-MAGI cells at 50 nM preincubated for 2 hrs followed by 5-aza-C addition measured after 4 hrs by LC-MS/MS analysis relative to 5-aza-C. Type of series: functional, cell-based.
Series [23] has as its system Human immunodeficiency virus 1. The series is described as follows: Potentiation of 5-Aza-C-induced antiviral activity against VSV-G pseudotyped HIV-1 NL4-3 infected in human U373-MAGI cells assessed as decrease in 5-Aza-C EC50 at 50 nM preincubated for 2 hrs followed by 5-Aza-C addition for 2 hrs and subsequent viral infection measured at 72 hrs post infection by flow cytometric analysis relative to control. Type of series: functional. For orientation: A flow cytometer gives signals particle by particle.

Series [24] relates to Human immunodeficiency virus 1. The series is described as follows: Antiviral activity against VSV-G pseudotyped HIV-1 NL4-3 infected in human U373-MAGI cells assessed as reduction in viral infectivity at 50 nM incubated for 4 hrs prior to viral infection measured at 72 hrs post infection by flow cytometric analysis. It is filed as functional, organism-based.
Series [25] is described as follows: Cytotoxicity against human U373-MAGI cells at 50 nM measured at 72 hrs by Celltiter-Glo luminescent cell viability assay. It is filed as cell-based. The following applies: 0.05 µM.
Series [26] concerns U373-MAGI. The series is described as follows: Reduction in dTTP level in human U373-MAGI cells at 50 nM after 6 hrs by LC-MS/MS analysis. Type of series: functional, cell-based.
Series [27] deals with U373-MAGI. The series is described as follows: Increase in 5-aza-dCTP/dCTP ratio in human U373-MAGI cells at 200 nM preincubated for 2 hrs followed by 5-aza-C addition measured after 4 hrs by LC-MS/MS analysis relative to 5-aza-C. Type of series: functional, cell-based.
Series [28] deals with U373-MAGI. The series is described as follows: Reduction in 5-aza-dCTP level in human U373-MAGI cells at 50 nM preincubated for 2 hrs followed by 5-aza-C addition measured after 4 hrs by LC-MS/MS analysis. It is filed as functional, cell-based.
Series [29] concerns U373-MAGI. The series is described as follows: Reduction in dTTP level in human U373-MAGI cells at 200 nM after 6 hrs by LC-MS/MS analysis. It is filed as functional, cell-based.
Series [30] deals with U373-MAGI. The series is described as follows: Reduction in dGTP level in human U373-MAGI cells at 50 nM after 6 hrs by LC-MS/MS analysis. It is filed as functional, cell-based.
The subject of series [31] is U373-MAGI. The series is described as follows: Reduction in dGTP level in human U373-MAGI cells at 200 nM after 6 hrs by LC-MS/MS analysis. Type of series: functional, cell-based.
For series [32], the system named is U373-MAGI. Kind of series: Reduction in 5-aza-dCTP level in human U373-MAGI cells at 200 nM preincubated for 2 hrs followed by 5-aza-C addition measured after 4 hrs by LC-MS/MS analysis. It is filed as functional, cell-based.

Molecules are shown by their SMILES. The source made the active and inactive calls. The rule behind the calls is not given here.

Turning to `Cc1nnc(C(=O)NC(C)(C)c2nc(C(=O)NCc3ccc(F)cc3)c(O)c(=O)n2C)o1`, the outcome in [1] and in series [3] was inactive. The outcome in series [2] and in series [4] was Active.

As to `Nc1ncn([C@@H]2O[C@H](COP(=O)(O)OP(=O)(O)OP(=O)(O)O)[C@@H](O)[C@H]2O)c(=O)n1`, the inhibition result in series [5] is “inactive”.

`Nc1ncn([C@H]2C[C@H](O)[C@@H](COP(=O)(O)OP(=O)(O)OP(=O)(O)O)O2)c(=O)n1`: the inhibition entry in series [5] was “inactive”.

On to `Nc1nc(Cl)nc2c1ncn2[C@@H]1O[C@H](CO)[C@@H](O)[C@@H]1F` [CLOFARABINE], for which the result in the series on U373-MAGI [6], with U373-MAGI [9], in the series with U373-MAGI [13], with U373-MAGI [14], with U373-MAGI [17] and with U373-MAGI [18] was inactive. In addition, the outcome with U373-MAGI [22], in the series on U373-MAGI [26], in the series on U373-MAGI [27], in the series with U373-MAGI [28], in the series on U373-MAGI [29] and in the series on U373-MAGI [30] was inactive. Further, the result in the series with U373-MAGI [7], in the series on U373-MAGI [8], in the series on U373-MAGI [10], in the series on U373-MAGI [12], in the series on U373-MAGI [15] and with U373-MAGI [16] was Active. Moreover, the result (in the series with U373-MAGI [19]; in the series with U373-MAGI [20]; with U373-MAGI [21]; in [24]; in the series on U373-MAGI [31]; with U373-MAGI [32]) was Active. The Activity in [11] is 30%; in series [25], “Non-toxic”. Besides, the “fold change (FC)” value in [23] was 2.5.
